How the values were obtained:
[1] = test system: transgenic mice expressing the human FcεRIα; experiment: passive cutaneous anaphylaxis with tumor microspheroids; format: in vivo; conditions: agent administered to the mouse
Procedure: Passive cutaneous anaphylaxis is performed in transgenic mice expressing the human FcεRIα. Transgenic mice are shaved and injected intradermally in different regions of the dorsal side with […] of 6 mg/ml histamine base (HollisterStier, Spokane, Wash.), 1 μg anti-PSA IgE, CT26-PSA or CT26-Neo microspheroid alone, 2 μg of crosslinker anti-human kappa antibody alone, 1 μg anti-PSA IgE plus CT26-PSA or CT26-Neo microspheroid, or 1 μg anti-PSA IgE crosslinked with 2 μg of an anti-human kappa antibody. After 15 min, 1% Evans Blue in […] saline is injected i.v. Mice are sacrificed 20 min later, and local cutaneous anaphylaxis is assessed visually by the blue leakage in the area surrounding the injection. […] This effect is not prevented by administration of cortisol to the mouse; however pre-administration of an H1 blocking agent inhibits the size of the response.

[2] = test system: SKBR3 human breast cancer cells; experiment: histamine release and tumor cell killing with effector cells (PBMC or RBL-Sx-38); format: cell-based; conditions: poly IC 1 to 25 μg/ml added 30 minutes to 4 hours post co-incubation
Procedure: Tumor cells are incubated with increasing concentrations of Her-2 specific IgG or IgE and combined with the effector cells. Evidence of local effector cell activation is measured by assessing histamine and or beta hexosimimidase release into the culture supernatant. Confirmatory experiments showing specificity for the Her-2 Ag can be conducted using anti-NP IgE and NP-HSA or anti-PSA IgE and PSA or conjugated PSA. In addition to immediate hypersensitivity, the target cells can be pre-labeled with Calcein AM and the ability of the anti-Her2 IgE or IgG to induce tumor killing can be monitored via direct effect of the PBMC or the RBL-Sx-38 cells in inducing release of the Calcein AM label.
Having established the baseline activity of a representative Ag specific IgE monoclonal in terms of both histamine release and basic tumor cell killing, the effect of corticosteroid and specific adjuvant on the model can be measured. […] The ability of TLR3 stimulation to augment the ADCC effect is addressed by adding low concentrations (1 to 25 μg/ml) of poly IC (Sigma) to the system at various time points.

C[C@]12CCC(=O)C=C1CC[C@@H]1[C@@H]2[C@@H](O)C[C@@]2(C)[C@H]1CC[C@]2(O)C(=O)CO [cortisol]
effect of co-medication on IgE-induced wheal and flare reaction [1]: not prevented

poly IC
cell killing (ADCC effect) [2]: enhances the amount of killing observed

Reference: patent publication US8945566B2, “Methods for improving the bioactivity of therapeutic IgE antibodies for the treatment of disease” (Quest PharmaTech, Inc., priority 2008, dated 2015)
